# Laboratory results published in patent US12606533B2, “3-phenylpropylamine derivative” (DAIICHI SANKYO COMPANY, LIMITED, priority 2023, dated 2026).
# Key:
# CYP11A1 = assay: Changes in SF1 target gene expression for NCI-H295R: CYP11A1 mRNA (qPCR); type: cell-based; settings: Homo sapiens, NCI-H295R cells, 24 hr
# Protocol: (§1) NCI-H295R cells were cultured in a 5% CO2 incubator at 37° C. using DMEM/F12 medium (Thermo Fisher Scientific Inc.) containing 2.5% Nu-Serum (registered trademark) Growth Medium Supplement (Corning) and 1% Corning ITS+ Premix Universal Culture Supplement (Corning). The DMSO solution of each compound was serially diluted with DMSO using a D300e Digital Dispenser (TECAN), and the compounds were added to a 96-well plate (FALCON). NCI-H295R cells were seeded at 1×10^4 cells/50 μL/well on the 96-well plate containing the compounds added thereto, and cultured for 24 hr in a 5% CO2 incubator at 37° C. The final DMSO concentration in the medium was adjusted to 0.1% (v/v) in all cases, and the concentration range of the compounds was set to 1000 nM to 0.32 nM with a common ratio […]. After the completion of culture, the medium was discarded, 50 μL/well of chilled D-PBS (Sigma Aldrich) was added to wash the cells, and D-PBS was discarded. After washing, 25 μL/well of Cells-to-CT (registered trademark) Bulk Lysis Reagents (Thermo Fisher Scientific, Inc.) was added to the wells, the mixture was stirred for 5 min with a plate mixer, and 2.5 μL/well of the reaction quenching liquid was added to prepare cell lysate. The cell lysate was dispensed into a 96-well plate (Corning) at 10 μL/well, and 40 μL/well of Cells-to-CT Bulk RT Reagents (Thermo Fisher Scientific, Inc.) was added. A reverse transcription reaction was performed at 37° C. for 50 min using a thermal cycler, and the reverse transcriptase was inactivated by heating at 95° C. for 5 min, and then stored at 10° C. PrimeTime (registered trademark) Gene Expression Master Mix (Integrated DNA Technologies), the target genes CYP11A1, CYP17A1, CYP21A2, or STAR, and the control gene ACTB PrimeTime (registered trademark) qPCR Probe Assays (Integrated DNA Technologies), and Nuclease free water were mixed at a ratio of 20:1:1:10 to prepare a PrimerProbe mix. The prepared PrimerProbe mix was added to a 384-well plate at 8 μL/well, and the cDNA obtained by reverse transcription was added at 2 μL/well. Real-Time PCR was performed under fast cycling conditions (95° C. for 3 min, followed by 40 cycles of 95° C. for 5 seconds and 62° C. for 30 seconds) to measure the fluorescent signal. The obtained data was analyzed using GraphPad Prism9 (GraphPad Software Inc.) to calculate the concentration (IC50 value) that reduces the mRNA expression level by 50%. The IC50 values (unit: nM) for CYP11A1, CYP17A1, CYP21A2, and STAR, of the compounds corresponding to each Example number are shown in Table 94.
# STAR = assay: Changes in SF1 target gene expression for NCI-H295R: STAR mRNA (qPCR); type: cell-based; settings: Homo sapiens, NCI-H295R cells, 24 hr
# Protocol: as §1
# CYP17A1 = assay: Changes in SF1 target gene expression for NCI-H295R: CYP17A1 mRNA (qPCR); type: cell-based; settings: Homo sapiens, NCI-H295R cells, 24 hr
# Protocol: as §1
# CYP21A2 = assay: Changes in SF1 target gene expression for NCI-H295R: CYP21A2 mRNA (qPCR); type: cell-based; settings: Homo sapiens, NCI-H295R cells, 24 hr
# Protocol: as §1
# SF1-LBD = SF1-LBD (Homo sapiens, UniProt Q13285); assay: Inhibitory activity against binding of DAX1 to SF1-LBD (AlphaLISA); settings: inhibition of binding of DAX1 peptide to His-SF1-LBD, read-out: cell-free SF1 IC50
# Protocol: The binding activity of each compound to the SF-1 ligand binding domain (LBD) was evaluated using the binding inhibitory activity of each compound against binding of DAX1 to SF1-LBD as an index. 100 nM His-SF1-LBD, 2 nM Biotin-DAX1 peptide (Biotin-[…]-NH2) and each compound (8-point i1 dilution series with common ratio 2 from final concentration 2 μM) were mixed in assay buffer [25 mM HEPES (pH 7.5), 100 mM NaCl, 0.1% BSA, 0.01% CHAPS, 1 mM DTT] and reacted at room temperature for 30 min. Anti-6×His AlphaLISA Acceptor beads and Streptavidin-coated AlphaScreen Donor beads were mixed to a final concentrations of 5 μg/ml and 10 μg/ml, respectively, and reacted in the dark at room temperature for 60 min. AlphaLISA signals were detected using a multimode plate reader (EnVision Xcite, PerkinElmer). The binding rate of DAX1 peptide to SF1 was calculated from the luminescence amount (C) of the compound-free group and the luminescence amount (T) of the compound-added group, based on the following formula.
# The DAX1 peptide binding rate at each concentration was analyzed using GraphPad Prism6 (GraphPad Software Inc.) to calculate the concentration (IC50 value) of each compound that inhibits 50% of the binding of DAX1 to SF1-LBD.
# Sequence of SF1-LBD (Q13285 222-459 limits assumed): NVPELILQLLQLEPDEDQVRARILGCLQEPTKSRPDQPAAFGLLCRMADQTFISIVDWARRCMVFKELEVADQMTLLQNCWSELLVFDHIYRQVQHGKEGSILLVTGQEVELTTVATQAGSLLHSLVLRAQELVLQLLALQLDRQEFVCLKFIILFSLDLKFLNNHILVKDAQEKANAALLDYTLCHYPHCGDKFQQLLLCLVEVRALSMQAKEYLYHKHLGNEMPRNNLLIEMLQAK
Compound,IC50 (CYP11A1),IC50 (STAR),IC50 (CYP17A1),IC50 (CYP21A2),IC50 (SF1-LBD)
"COc1ccc(C2(CCN(Cc3ccc(O[C@H]4CC[C@H](C(=O)O)CC4)cc3)C(=O)C(C)(C)C)CCOC(C)(C)C2)cc1 (stereo partly drawn) [Example D3, Trans-4-(4-{[(2,2-dimethylpropanoyl){2-[4-(4-methoxyphenyl)-2,2-dimethyltetrahydro-2H-pyran-4-yl]ethyl}amino]methyl}phenoxy)cyclohexanecarboxylic acid]",0.053 µM,0.076 µM,0.144 µM,0.078 µM,0.029 µM
"COc1ccc(C2(CCN(Cc3ccc(O[C@H]4CC[C@H](C(=O)O)CC4)cc3)c3ccccn3)CCOC(C)(C)C2)cc1 (stereo partly drawn) [Example I2, trans-4-(4-{[{2-[4-(4-Methoxyphenyl)-2,2-dimethyltetrahydro-2H-pyran-4-yl]ethyl}(pyridin-2-yl)amino]methyl}phenoxy)cyclohexanecarboxylic acid]",0.029 µM,0.055 µM,0.117 µM,0.052 µM,0.047 µM
"CC1(C)CC(CCN(Cc2ccc(O[C@H]3CC[C@H](C(=O)O)CC3)cc2)C(=O)C(C)(C)C)(c2ccc(OC(F)(F)F)cc2)CCO1 (stereo partly drawn) [Example B5, Trans-4-(4-{[(2,2-dimethylpropanoyl) (2-{2,2-dimethyl-4-[4-(trifluoromethoxy)phenyl]tetrahydro-2H-pyran-4-yl}ethyl)amino]methyl}phenoxy)cyclohexanecarboxylic acid]",0.01 µM,0.024 µM,0.056 µM,0.017 µM,0.02 µM
"CC(C)Oc1ccc(C2(CCN(Cc3ccc(O[C@H]4CC[C@H](C(=O)O)CC4)cc3)C(=O)C(C)(C)C)CCOC(C)(C)C2)cc1 (stereo partly drawn) [Example F4, Trans-4-(4-{[(2,2-dimethylpropanoyl) (2-{2,2-dimethyl-4-[4-(propan-2-yloxy)phenyl]tetrahydro-2H-pyran-4-yl}ethyl)amino]methyl}phenoxy)cyclohexanecarboxylic acid]",0.014 µM,0.069 µM,0.166 µM,0.023 µM,0.031 µM
COc1ccc(C2(CCN(Cc3ccc(Oc4ccc(N=S(C)(C)=O)cc4)cc3)C(=O)C(C)(C)C)CCOC(C)(C)C2)cc1 (stereo not shown) [Example N2],0.019 µM,0.039 µM,0.113 µM,0.03 µM,0.041 µM
"CC1(C)CC(CCN(Cc2ccc(O[C@H]3CC[C@H](C(=O)O)CC3)cc2)C(=O)C(C)(C)C)(c2ccc(N3CCCC3)cc2)CCO1 (stereo partly drawn) [Example G3, Trans-4-(4-{[(2,2-dimethylpropanoyl) (2-{2,2-dimethyl-4-[4-(pyrrolidin-1-yl)phenyl]tetrahydro-2H-pyran-4-yl}ethyl)amino]methyl}phenoxy)cyclohexanecarboxylic acid]",0.032 µM,0.035 µM,0.073 µM,0.042 µM,0.054 µM
"COc1ccc([C@]2(CCN(Cc3ccc(O[C@H]4CC[C@H](CS(C)(=N)=O)CC4)cc3)C(=O)C(C)(C)C(F)F)CCOC(C)(C)C2)cc1 (single isomer, unassigned) [Example U11, 3,3-Difluoro-N-{2-[(4R)-4-(4-methoxyphenyl)-2,2-dimethyltetrahydro-2H-pyran-4-yl]ethyl}-2,2-dimethyl-N-{4-[(trans-4-{[(R) or (S)—S-methylsulfonimidoyl]methyl}cyclohexyl)oxy]benzyl}propanamide]",0.01 µM,0.054 µM,0.14 µM,0.024 µM,0.021 µM
"CNc1ccc(C2(CCN(Cc3ccc(O[C@H]4CC[C@H](C(=O)O)CC4)cc3)C(=O)C(C)(C)C)CCOC(C)(C)C2)cc1 (stereo partly drawn) [Example L2, Trans-4-(4-{[(2-{2,2-dimethyl-4-[4-(methylamino)phenyl]tetrahydro-2H-pyran-4-yl}ethyl) (2,2-dimethylpropanoyl)amino]methyl}phenoxy)cyclohexanecarboxylic acid]",0.017 µM,0.083 µM,0.238 µM,0.046 µM,0.032 µM

# These reach a lower IC50 (CYP11A1). Values come first.
IC50 (CYP11A1),IC50 (STAR),IC50 (CYP17A1),IC50 (CYP21A2),IC50 (SF1-LBD),Compound
0.0012 µM,0.0032 µM,0.012 µM,0.0022 µM,0.022 µM,"COc1ccc([C@]2(CCN(Cc3ccc(O[C@H]4CC[C@H](CC(=O)O)CC4)nc3)CC(C)(C)C(F)(F)F)CCOC(C)(C)C2)cc1 [Example S4, {Trans-4-[(5-{[{2-[(4R)-4-(4-methoxyphenyl)-2,2-dimethyltetrahydro-2H-pyran-4-yl]ethyl}(3,3,3-trifluoro-2,2-dimethylpropyl)amino]methyl}pyridin-2-yl)oxy]cyclohexyl)acetic acid]"
0.0041 µM,0.014 µM,0.07 µM,0.0081 µM,0.039 µM,"COc1ccc(C2(CCN(Cc3ccc(Oc4ccc(CC(C)(C)C(=O)O)cc4)cc3)C(=O)C(C)(C)C)CCOC(C)(C)C2)cc1 (stereo not shown) [Example J4, 3-[4-(4-{[(2,2-Dimethylpropanoyl){2-[4-(4-methoxyphenyl)-2,2-dimethyltetrahydro-2H-pyran-4-yl]ethyl}amino]methyl}phenoxy)phenyl]-2,2-dimethylpropanoic acid]"
0.0028 µM,0.0039 µM,0.013 µM,0.0043 µM,0.018 µM,"COc1ccc([C@]2(CCN(Cc3ccc(O[C@H]4CC[C@H](C(=O)O)CC4)cc3)CC(C)(C)C(F)(F)F)CCOC(C)(C)C2)cc1 [Example M5, Trans-4-(4-{[{2-[(4R)-4-(4-methoxyphenyl)-2,2-dimethyltetrahydro-2H-pyran-4-yl]ethyl)(3,3,3-trifluoro-2,2-dimethylpropyl)amino]methyl}phenoxy)cyclohexanecarboxylic acid]"
0.0033 µM,0.0062 µM,0.028 µM,0.0043 µM,0.027 µM,"CCO[C@@H](Cc1ccc(Oc2ccc(CN(CC[C@@]3(c4ccc(OC)cc4)CCOC(C)(C)C3)CC(C)(C)C(F)(F)F)cc2)cc1)C(=O)O [Example R3, (2S)-2-Ethoxy-3-[4-(4-{[{2-[(4R)-4-(4-methoxyphenyl)-2,2-dimethyltetrahydro-2H-pyran-4-yl]ethyl}(3,3,3-trifluoro-2,2-dimethylpropyl)amino]methyl}phenoxy)phenyl]propanoic acid]"
0.0012 µM,0.0041 µM,0.024 µM,0.0024 µM,0.026 µM,"COc1ccc([C@]2(CCN(Cc3ccc(O[C@H]4CC[C@H](CC(=O)O)CC4)cc3)CC(C)(C)C(F)(F)F)CCOC(C)(C)C2)cc1 [Example T2, [Trans-4-(4-{[{2-[(4R)-4-(4-methoxyphenyl)-2,2-dimethyltetrahydro-2H-pyran-4-yl]ethyl}(3,3,3-trifluoro-2,2-dimethylpropyl)amino]methyl}phenoxy)cyclohexyl]acetic acid]"
0.0085 µM,0.044 µM,0.189 µM,0.019 µM,0.035 µM,"COc1ccc(C2(CCN(Cc3ccc(C(=O)c4ccc(CCC(=O)O)cc4)c(C)c3)C(=O)C(C)(C)C(F)(F)F)CCOC(C)(C)C2)cc1 (stereo not shown) [Example Q4, 3-[4-(4-{[{2-[4-(4-Methoxyphenyl)-2,2-dimethyltetrahydro-2H-pyran-4-yl]ethyl}(3,3,3-trifluoro-2,2-dimethylpropanoyl)amino]methyl}-2-methylbenzoyl)phenyl]propanoic acid]"
